This test deals with VprBP/DCAF1 (Vpr binding protein) (Homo sapiens, UniProt Q9Y4B6). The test is described as follows: Western blot of H2AT120p (VprBP substrate mark) in G361 and MeWo melanoma cells treated […] h with […] B32B3. It counts as cell-based. For orientation: A western blot detects proteins with antibodies after separation by electrophoresis.

Each structure is given as a SMILES string.

A word on the IC50: it is the concentration that inhibits the measured activity by half. Read a high IC50 as weaker potency.

Chain of VprBP/DCAF1 (Vpr binding protein) (Q9Y4B6 whole entry): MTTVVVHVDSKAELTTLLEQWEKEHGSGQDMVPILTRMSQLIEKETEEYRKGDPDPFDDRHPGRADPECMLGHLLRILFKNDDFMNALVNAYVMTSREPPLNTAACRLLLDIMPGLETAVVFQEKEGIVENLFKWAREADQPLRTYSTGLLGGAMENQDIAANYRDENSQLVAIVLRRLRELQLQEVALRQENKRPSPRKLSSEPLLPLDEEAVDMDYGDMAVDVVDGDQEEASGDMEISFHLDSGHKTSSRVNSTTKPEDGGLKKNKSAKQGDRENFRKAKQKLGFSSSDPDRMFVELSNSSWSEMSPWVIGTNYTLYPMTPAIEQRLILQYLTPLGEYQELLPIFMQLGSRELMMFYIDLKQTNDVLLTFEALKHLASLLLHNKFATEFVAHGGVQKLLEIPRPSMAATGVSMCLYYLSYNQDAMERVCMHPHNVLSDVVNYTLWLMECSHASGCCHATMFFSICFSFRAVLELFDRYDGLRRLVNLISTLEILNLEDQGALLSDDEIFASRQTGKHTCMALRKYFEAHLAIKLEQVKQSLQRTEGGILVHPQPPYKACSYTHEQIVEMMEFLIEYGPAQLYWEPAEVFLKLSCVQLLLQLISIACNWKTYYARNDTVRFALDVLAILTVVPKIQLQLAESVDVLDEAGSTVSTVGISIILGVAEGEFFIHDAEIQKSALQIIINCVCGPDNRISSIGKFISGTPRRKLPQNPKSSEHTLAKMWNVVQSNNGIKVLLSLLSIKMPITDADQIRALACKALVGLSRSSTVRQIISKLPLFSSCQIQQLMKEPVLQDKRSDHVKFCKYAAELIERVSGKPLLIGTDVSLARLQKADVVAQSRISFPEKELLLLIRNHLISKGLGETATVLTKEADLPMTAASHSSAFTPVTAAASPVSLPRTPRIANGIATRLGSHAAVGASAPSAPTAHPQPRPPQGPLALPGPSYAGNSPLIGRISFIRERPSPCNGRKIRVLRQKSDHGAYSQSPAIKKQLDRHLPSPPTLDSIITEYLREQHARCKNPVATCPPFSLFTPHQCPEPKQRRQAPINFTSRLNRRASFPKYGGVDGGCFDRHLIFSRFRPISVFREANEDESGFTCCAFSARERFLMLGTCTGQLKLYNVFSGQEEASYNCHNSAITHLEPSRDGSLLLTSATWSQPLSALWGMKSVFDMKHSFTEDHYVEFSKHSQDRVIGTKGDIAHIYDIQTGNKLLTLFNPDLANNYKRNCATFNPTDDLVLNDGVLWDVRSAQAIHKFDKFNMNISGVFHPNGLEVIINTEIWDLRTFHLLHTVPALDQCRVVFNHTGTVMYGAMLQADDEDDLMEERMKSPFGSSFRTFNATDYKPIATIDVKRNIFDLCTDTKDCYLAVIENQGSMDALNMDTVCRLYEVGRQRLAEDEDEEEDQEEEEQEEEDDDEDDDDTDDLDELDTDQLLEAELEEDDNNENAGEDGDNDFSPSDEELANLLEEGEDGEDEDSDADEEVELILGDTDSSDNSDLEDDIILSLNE

On to `C(=N\Nc1ncnc2sc3c(c12)CCCC3)/c1c[nH]c2ccccc12` [B32B3], for which the half-inhibitory concentration (IC50) came to 0.1 µM.

The record behind these values is paper PMC10526264, “VprBP/DCAF1 Triggers Melanomagenic Gene Silencing through Histone H2A Phosphorylation” (Biomedicines, 2023).
